Patent US6673786B1, “Tryptase inhibitors” (Altana Pharma AG, priority 1999, dated 2004)
Where a name gives a salt, the structure may show the parent alone.

Biological target: human tryptase
Test: Inhibition of human tryptase (apparent dissociation constant, chromogenic substrate tos-Gly-Pro-arg-pNA)
Format: biochemical
Details: apparent dissociation constant in presence of substrate; heparin 0.1-50 μg/ml; equilibrium conditions; read-out: Klapp
Description: The documented pathophysiological effects of mast cell tryptase are caused directly by the enzymatic activity of the protease. Accordingly, they are reduced or blocked by inhibitors which inhibit the enzymatic activity of the tryptase. A suitable measure for the affinity of a reversible inhibitor to the target protease is the equilibrium dissociation constant Ki of the enzyme-inhibitor complex. This Ki value can be determined via the effect of the inhibitor on the tryptase-induced cleavage of a chromogenic peptide-p-nitroanilide substrate or a fluorogenic peptide-aminomethylcoumarin substrate.
The dissociation constants for the tryptase-inhibitor complexes are determined under equilibrium conditions in accordance with the general proposals of Bieth (Bieth J G, Pathophysiological Interpretation of kinetic constants of protease inhibitors, Bull. Europ. Physiopath. Resp. 16:183-195, 1980) and the methods of Sommerhoff et al. (Sommerhoff C P et al., A Kazal-type inhibitor of human mast cell tryptase: Isolation from the medical leech Hirudo medicinalis, characterization, and sequence analysis, Biol. Chem. Hoppe-Seyler 375: 685-694, 1994).
Human tryptase is isolated from lung tissue or prepared recombinantly; the specific activity of the protease, determined by titration, is usually greater than 85% of the theoretical value. In the presence of heparin (0.1-50 μg/ml) for stabilizing the protease, constant amounts of the tryptase are incubated with increasing amounts of the inhibitors. After an equilibrium between the reaction partners has formed, the remaining enzyme activity after addition of the peptide-p-nitroanilide substrate tos-Gly-Pro-arg-pNA is determined and the cleavage of the latter is monitored at 405 nm for 3 min. Alternatively, the remaining enzymatic activity can also be determined using fluorogenic substrates. The apparent dissociation constants Kiapp (i.e. in the presence of substrate) are subsequently determined by adapting the enzyme rates to the general equation for reversible inhibitors (Morrison J F, Kinetics of the reversible inhibition of enzymecatalyzed reactions by tight-binding inhibitors, Biochim. Biophys. Acta 185, 269-286, 1969) using non-linear regression:
V1V0=1−{Et+It+Kiapp−[(Et+It+Kiapp)^2−4EtIt]^½}/2Et
V1 and V0 are the rates in the presence and absence, respectively, of the inhibitor, and Et and It are the tryptase and inhibitor concentrations, respectively.
The apparent dissociation constants determined for the compounds according to the invention are shown in Table A below, where the numbers of the compounds correspond to the numbers of the compounds in the examples.

Row | Ki [nM] | SMILES
1 | 1.2 | NCc1ccc(CCC(=O)N2CCN(C(=O)CN3CCC(=O)N(CC(=O)N4CCN(C(=O)CCc5ccc(CN)cc5)CC4)CCC3=O)CC2)cc1 [Compound 2, 1,5-bis-{2-[4-(3-(4-aminomethylphenyl)proplonyl)piperazin-1-yl]-2-oxoethyl}perhydro-1,5-diazocin-2,6-dione Dihydrochloride]
2 | 3.3 | NCc1cccc(CCC(=O)N2CCN(C(=O)CN3CCC(=O)N(CC(=O)N4CCN(C(=O)CCc5cccc(CN)c5)CC4)CCC3=O)CC2)c1 [Compound 3, 1,5-bis-{2-[4-(3-(3-aminomethylphenyl)proplonyl)piperazin-1-yl]-2-oxoethyl}perhydro-1,5-diazocin-2,6-dione Dihydrochloride]
3 | 0.8 | NCc1ccc(OCC(=O)N2CCN(C(=O)CN3CCC(=O)N(CC(=O)N4CCN(C(=O)COc5ccc(CN)cc5)CC4)CCC3=O)CC2)cc1 [Compound 4, 1,5-bis-{2-[4-(2-(4-Aminomethylphenoxy)acetyl)perazin-1-yl]-2-oxoethyl}perhydro-1.5-diazocin-2,6-dione Dihydrochloride]
4 | 2.6 | NCc1ccc(CNC(=O)N2CCN(C(=O)CN3CCC(=O)N(CC(=O)N4CCN(C(=O)NCc5ccc(CN)cc5)CC4)CCC3=O)CC2)cc1 [Compound 1, 1,5-bis-{2-[4-(4-Aminomethylbenzylaminocarbonyl)piperazin-1-yl]-2-oxoethyl}perhydro-1,5-diazocin-2,6-dione Dihydrochloride]
